Source: patent publication US20220220128A1, “HETEROCYCLIC COMPOUNDS AS KINASE INHIBITORS, COMPOSITIONS COMPRISING THE HETEROCYCLIC COMPOUND, AND METHODS OF USE THEREOF” (JS Innopharm (Shanghai) Ltd, priority 2019, published 2022)

Columns and labels:
human KDR kinase = target: T1, human KDR kinase (Homo sapiens, UniProt P35968); test: KDR Kinase Assay (LanthaScreen TR-FRET enzymatic assay); type: biochemical; settings: 1.2 nM KDR, 92 μM ATP
T1 construct: purchased Carna 08-191
Description: Compounds were tested in a LanthaScreen™ time-resolved fluorescence energy transfer (TR-FRET) enzymatic assay from Invitrogen. The assay used human KDR kinase (Carna 08-191). Test compounds were prepared and diluted in DMSO in 3-fold serial dilutions to 50× of the final testing concentrations. The compounds were then further diluted to 5× by the kinase reaction buffer (50 mM HEPES pH 7.5, 0.0015% Brij-35). The enzymatic reaction for compound testing was performed in a white 384-well polypropylene plate (Corning 3573) with a total reaction volume of 25 μl containing 1.2 nM KDR, 3 μM peptide substrate FAM-P22 (GL Biochem 112393), and 92 μM ATP (Sigma A7699-1G). The assay started with loading RET diluted in kinase reaction buffer to wells, followed by addition of equal volume of 5× compounds for 15-min incubation at the room temperature for pre-treatment. The enzymatic reaction was initiated by addition of mixture of the substrate and ATP prepared in kinase reaction buffer. After incubation at 28° C. for one hour, 25 μl of stopper buffer (a mixture of 100 mM HEPES pH 7.5 buffer, 0.015% Brij-35, 50 mM EDTA and 0.2% of coating reagent 3 (Cliper Lifesciences)) and produce TR-FRET signals. After 30 minutes of incubation at room temperature, the plate was read in a Caliper with the following settings: Excitation 340 nm (30)/Emission1 495 nm (10)/Emission2 520 nm (25). The TR-FRET values were dimensionless numbers that were calculated as the ratio of the acceptor ([…]) signal to the donor (Terbium) signal. Percent of control was calculated as the percentage of compound-treated vs 1% DMSO vehicle-treated. The dose-response curves were generated and the IC50s were calculated by nonlinear sigmoid curve fitting using XLFit.

TT cells = test: TT Cell Proliferation Assay (WST-8, 8 days); type: cell-based; settings: Homo sapiens, TT, 192 h, growth inhibition in TT cells, read-out: TT Cellular Activity
Description: Compounds disclosed herein were tested for the inhibition of RET by a cancer cell proliferation assay commonly known as MTT assay. In this assay, a complete media was prepared by adding 10% fetal bovine serum to RPMI-1640 medium (Life technology). TT cells were added to each of 88 wells of a 96 well plate at a seeding density of 6,000 cells/well/90 μL. The cells were allowed to attach to the plate by incubating at 37° C. for 24 hours. The compound was dissolved in DMSO (SIGMA). A solution of test compound was prepared in complete media by serial dilution to obtain the following concentrations: 50 μM, 15 μM, 5 μM, 1.5 μM, 0.5 μM, 0.15 μM, 0.05 μM, 0.015 μM and 0.005 μM. The test compound solution (10 μL) was added to each of 80 cell-containing wells. The final concentrations of the compound were following: 5 μM, 1.5 μM, 0.5 μM, 0.15 μM, 0.05 μM, 0.015 μM, 0.005 μM, 0.0015 μM and 0.0005 μM. The final concentration of DMSO is 0.5%. To the 8 remaining cell-containing wells, only complete media (containing 0.5% DMSO) was added to form a control group in order to measure maximal proliferation. To the remaining 8 empty wells, complete media was added to for a vehicle control group in order to measure background. The plates were incubated at 37° C. for 8 days. 10 μL WST-8 solution (DOJINDO, Cell Counting KIT-8) was added to each well. The plates were further incubated at 37° C. for 5 hours, and then read for the absorbance using a microplate reader at 450 nm. The IC50 was calculated using GraphPad Prism.

T1 sequence (P35968 20-1356): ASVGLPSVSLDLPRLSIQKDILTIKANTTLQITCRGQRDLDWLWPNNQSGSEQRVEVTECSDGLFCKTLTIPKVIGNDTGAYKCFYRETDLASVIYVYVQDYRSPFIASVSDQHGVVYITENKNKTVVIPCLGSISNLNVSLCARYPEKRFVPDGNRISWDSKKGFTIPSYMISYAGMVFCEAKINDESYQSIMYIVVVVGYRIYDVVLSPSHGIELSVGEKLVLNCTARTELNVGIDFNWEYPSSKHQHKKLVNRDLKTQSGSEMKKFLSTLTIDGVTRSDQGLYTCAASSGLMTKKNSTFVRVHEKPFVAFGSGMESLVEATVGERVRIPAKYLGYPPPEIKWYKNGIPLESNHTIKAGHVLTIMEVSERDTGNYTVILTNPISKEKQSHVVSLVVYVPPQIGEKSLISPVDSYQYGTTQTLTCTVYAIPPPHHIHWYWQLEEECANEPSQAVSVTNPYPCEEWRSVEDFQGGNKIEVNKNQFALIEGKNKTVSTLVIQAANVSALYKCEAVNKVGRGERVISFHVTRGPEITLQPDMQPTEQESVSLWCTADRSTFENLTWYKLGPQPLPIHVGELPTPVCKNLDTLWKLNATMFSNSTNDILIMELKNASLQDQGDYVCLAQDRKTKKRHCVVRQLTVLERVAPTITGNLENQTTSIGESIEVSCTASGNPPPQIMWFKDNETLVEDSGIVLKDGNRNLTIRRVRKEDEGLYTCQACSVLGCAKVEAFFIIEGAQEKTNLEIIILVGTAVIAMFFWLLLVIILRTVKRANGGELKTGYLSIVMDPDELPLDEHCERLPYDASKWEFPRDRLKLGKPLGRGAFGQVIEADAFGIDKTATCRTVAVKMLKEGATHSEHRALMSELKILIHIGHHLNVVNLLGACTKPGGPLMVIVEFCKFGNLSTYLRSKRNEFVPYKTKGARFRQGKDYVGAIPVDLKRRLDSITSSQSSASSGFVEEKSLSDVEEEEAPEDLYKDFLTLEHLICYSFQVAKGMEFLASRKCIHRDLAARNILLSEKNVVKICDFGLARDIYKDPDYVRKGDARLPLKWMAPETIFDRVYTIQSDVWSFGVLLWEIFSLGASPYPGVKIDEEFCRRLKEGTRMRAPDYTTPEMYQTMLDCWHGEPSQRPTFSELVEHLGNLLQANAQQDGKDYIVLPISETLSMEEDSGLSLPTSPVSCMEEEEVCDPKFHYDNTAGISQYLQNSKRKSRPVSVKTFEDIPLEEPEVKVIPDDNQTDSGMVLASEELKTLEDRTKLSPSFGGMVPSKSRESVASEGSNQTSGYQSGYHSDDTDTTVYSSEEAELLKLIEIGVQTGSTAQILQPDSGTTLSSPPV

| IC50 (human KDR kinase) [nM] | SMILES | IC50 (TT cells) [nM] |
| --- | --- | --- |
| 10 to 50 | CCOc1cc(-c2ccc(N3C[C@H]4C[C@H](NC(=O)c5ncccc5Cl)C[C@H]4C3)nc2)c2c(C#N)cnn2c1 [Example 49, 3-chloro-N-((3aR,5s,6aS)-2-(5-(3-cyano-6-ethoxypyrazolo[1,5-a]pyridin-4-yl)pyridin-2-yl)octahydrocyclopenta[c]pyrrol-5-yl)picolinamide] | 10 to 50 |
| 10 to 50 | CCOc1cc(-c2ccc(N3C[C@@H]4C[C@@](C)(NC(=O)c5ncccc5Cl)C[C@@H]4C3)nc2)c2c(C#N)cnn2c1 [Example 51, 3-chloro-N-((3aR,5s,6aS)-2-(5-(3-cyano-6-ethoxypyrazolo[1,5-a]pyridin-4-yl)pyridin-2-yl)-5-methyloctahydrocyclopenta[c]pyrrol-5-yl)picolinamide] | 10 to 50 |
| > 100 | CCOc1cc(-c2ccc(N3C[C@@H]4[C@H](C3)[C@H]4NC(=O)c3ncccc3Cl)nc2)c2c(C#N)cnn2c1 [Example 38, 3-chloro-N-((1R,5S,6s)-3-(5-(3-cyano-6-ethoxypyrazolo[1,5-a]pyridin-4-yl)pyridin-2-yl)-3-azabicyclo[3.1.0]hexan-6-yl)picolinamide] | > 100 |

The next lines start with the compound.

| SMILES | IC50 (human KDR kinase) [nM] | IC50 (TT cells) [nM] |
| --- | --- | --- |
| CCOc1cc(-c2ccc(N3C[C@@H]4[C@@H](CNC(=O)c5ncccc5Cl)[C@@H]4C3)nc2)c2c(C#N)cnn2c1 [Example 94, 3-chloro-N-(((1R,5S,6s)-3-(5-(3-cyano-6-ethoxypyrazolo[1,5-a]pyridin-4-yl)pyridin-2-yl)-3-azabicyclo[3.1.0]hexan-6-yl)methyl)picolinamide] | 50 to 100 | 10 to 50 |
| CCOc1cc(-c2ccc(N3C[C@H]4C[C@@H](NC(=O)c5ncccc5Cl)C[C@H]4C3)nc2)c2c(C#N)cnn2c1 [Example 48, 3-chloro-N-((3aR,5r,6aS)-2-(5-(3-cyano-6-ethoxypyrazolo[1,5-a]pyridin-4-yl)pyridin-2-yl)octahydrocyclopenta[c]pyrrol-5-yl)picolinamide] | 10 to 50 | ≤ 10 |
| CCOc1cc(-c2ccc(N3C[C@@H]4[C@H](C3)[C@@H]4NC(=O)c3ncccc3Cl)nc2)c2c(C#N)cnn2c1 [Example 43, 3-chloro-N-((1R,5S,6r)-3-(5-(3-cyano-6-ethoxypyrazolo[1,5-a]pyridin-4-yl)pyridin-2-yl)-3-azabicyclo[3.1.0]hexan-6-yl)picolinamide] | > 100 | > 100 |
